Organism: Homo sapiens
Test: Ratio of Ki for wild type human PNMT to Ki for human PNMT K57 mutant

SMILES: NS(=O)(=O)c1ccc2c(c1)CNCC2
- Ratio Ki: 0.02
